Assay results published in BindingDB's records for doi:10.1021/jm00006a011 (Merck Sharp & Dohme Research Laboratories, 1995).

Target: Substance-P receptor (Homo sapiens, UniProt P25103)
Assay: Binding affinity at human Tachykinin receptor 1 expressed in CHO cells by [125 I][…]-substance P displacement.

Substance-P receptor, sequence (P25103 whole entry): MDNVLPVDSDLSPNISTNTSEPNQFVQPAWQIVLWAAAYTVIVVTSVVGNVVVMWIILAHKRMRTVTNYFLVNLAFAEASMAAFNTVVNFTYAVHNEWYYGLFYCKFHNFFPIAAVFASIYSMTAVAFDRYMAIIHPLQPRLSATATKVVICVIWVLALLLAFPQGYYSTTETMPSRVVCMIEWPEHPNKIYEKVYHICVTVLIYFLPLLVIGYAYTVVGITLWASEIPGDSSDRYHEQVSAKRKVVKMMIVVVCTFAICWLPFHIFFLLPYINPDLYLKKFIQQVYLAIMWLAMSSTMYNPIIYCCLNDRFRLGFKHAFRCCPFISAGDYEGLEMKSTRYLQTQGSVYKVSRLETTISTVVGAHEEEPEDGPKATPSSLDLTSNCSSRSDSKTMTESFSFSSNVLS

- IC50: 22 nM
Structure (SMILES): O=c1oc(Cc2c[nH]c3ccccc23)c(O)n1Cc1cc(C(F)(F)F)cc(C(F)(F)F)c1
